target: T1, chicken gizzard smooth muscle myosin subfragment-1 chemically crosslinked to cardiac or skeletal actin (Gallus gallus, UniProt P10587); experiment: Smooth muscle myosin ATPase dose response assay (pyruvate kinase/horseradish peroxidase/pyruvate oxidase-coupled, amplex red fluorescence); type: biochemical; details: read-out: IC50 Arithmetic Mean
T1 construct: chicken gizzard smooth muscle myosin subfragment-1; from tissue; host or cells: chicken gizzard
Summary of the method: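 EDC/NHS-crosslinked S1–actin, amount set per prep by rate titration. Buffer: 12 mM K-PIPES pH 7.00 (22° C), 100 mM KCl, 2 mM MgCl2, 0.15 mM ATP, 0.1 mM PEP, 2 mM KPi, 0.1 mM amplex red. Read ex 480/em 615 nm; IC50 = midpoint, 4-param Hill fit.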

T1 sequence (P02607 2-151): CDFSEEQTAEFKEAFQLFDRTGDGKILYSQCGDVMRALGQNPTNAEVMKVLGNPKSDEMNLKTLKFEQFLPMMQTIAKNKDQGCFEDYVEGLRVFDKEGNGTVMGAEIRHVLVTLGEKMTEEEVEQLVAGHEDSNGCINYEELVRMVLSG
T1 sequence (P10587 84-789): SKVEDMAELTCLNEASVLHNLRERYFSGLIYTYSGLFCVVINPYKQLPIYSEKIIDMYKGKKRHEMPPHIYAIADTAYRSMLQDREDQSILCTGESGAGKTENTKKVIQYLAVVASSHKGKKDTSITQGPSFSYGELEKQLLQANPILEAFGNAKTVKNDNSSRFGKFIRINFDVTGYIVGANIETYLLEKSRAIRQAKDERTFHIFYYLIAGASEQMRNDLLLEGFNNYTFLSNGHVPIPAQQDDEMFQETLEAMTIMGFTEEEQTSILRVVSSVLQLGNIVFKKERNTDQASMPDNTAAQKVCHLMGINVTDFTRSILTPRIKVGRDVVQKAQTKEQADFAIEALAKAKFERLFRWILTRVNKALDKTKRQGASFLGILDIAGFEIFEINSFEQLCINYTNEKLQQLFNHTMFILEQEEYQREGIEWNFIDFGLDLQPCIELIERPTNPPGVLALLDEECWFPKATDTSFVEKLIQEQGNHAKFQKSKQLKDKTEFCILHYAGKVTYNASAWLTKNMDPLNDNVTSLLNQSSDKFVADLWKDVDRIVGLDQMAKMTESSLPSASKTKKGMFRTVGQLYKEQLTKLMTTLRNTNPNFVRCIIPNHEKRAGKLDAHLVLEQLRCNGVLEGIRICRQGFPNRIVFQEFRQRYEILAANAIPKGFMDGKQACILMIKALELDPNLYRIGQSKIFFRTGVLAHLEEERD

SMILES | IC50 [nM]
N#Cc1ccccc1-c1ccc(C(=O)N[C@H]2CCCNC2=O)c(NCCc2cccc(F)c2)n1 [N-((3S)-2-oxo(3-piperidyl))(6-(2-cyanophenyl)-2-{[2-(3-fluorophenyl)ethyl]amino}(3-pyridyl))carboxamide] | 5610
O=C(NCc1cccnc1)c1cc(C(=O)NCc2cccnc2)c(-c2ccccc2)nc1NCCc1cccc(F)c1 [(2-{[2-(3-fluorophenyl)ethyl]amino}-6-phenyl-5-[N-(3-pyridylmethyl)carbamoyl](3-pyridyl))-N-(3-pyridylmethyl)carboxamide] | 56000
N#Cc1ccccc1-c1ccc(C(=O)NC[C@@H]2CCCN2C(=O)CCCN)c(NCCc2cccc(F)c2)n1 [N-{[(2S)-1-(4-aminobutanoyl)pyrrolidin-2-yl]methyl}(6-(2-cyanophenyl)-2-{[2-(3-fluorophenyl)ethyl]amino}(3-pyridyl))carboxamide] | 1270
COc1ccc(Cl)c(-c2ccc(C(=O)NCc3cccnc3)c(NCCc3cccc(F)c3)n2)c1 [(6-(2-chloro-5-methoxyphenyl)-2-{[2-(3-fluorophenyl)ethyl]amino}(3-pyridyl))-N-(3-pyridylmethyl)carboxamide] | 2000
O=C(NCc1cccnc1)c1ccc(-c2ccccc2)nc1NCc1ccccc1 [{6-phenyl-2-[benzylamino](3-pyridyl)}-N-(3-pyridylmethyl)carboxamide] | 2790
N#Cc1ccccc1-c1ccc(C(=O)NCC(CN)C(N)=O)c(NCCc2cccc(F)c2)n1 (stereo not drawn) [N-(3-amino-2-carbamoylpropyl)(6-(2-cyanophenyl)-2-{[2-(3-fluorophenyl)ethyl]amino}(3-pyridyl))carboxamide] | 6650

Now those with a lower IC50, led by results:

IC50 [nM] | SMILES
121 | NCc1cccc(CNC(=O)c2ccc(-c3cn[nH]c3)nc2NCCc2cccc(F)c2)n1 [N-{[6-(aminomethyl)(2-pyridyl)]methyl}(2-{[2-(3-fluorophenyl)ethyl]amino}-6-pyrazol-4-yl(3-pyridyl))carboxamide]
9 | N#Cc1ccccc1-c1ccc(C(=O)NCc2cccc(CN)n2)c(NCCc2cccc(F)c2)n1 [N-{[6-(aminomethyl)(2-pyridyl)]methy}(6-(2-cyanophenyl)-2-{[2-(3-fluorophenyl)ethyl]amino}(3-pyridyl))carboxamide]
224 | Cn1cc(-c2nc(NCCc3cccc(F)c3)c(C(=O)NCC(C)(C)CO)cc2F)cn1 [(5-fluoro-2-{[2-(3-fluorophenyl)ethyl]amino}-6-(1-methylpyrazol-4-yl)(3-pyridyl))-N-(3-hydroxy-2,2-dimethylpropyl)carboxamide]
174 | N#Cc1ccccc1-c1ccc(C(=O)NC[C@H]2CCCN2)c(NCCc2cccc(F)c2)n1 [N-[((2R)pyrrolidin-2-yl)methyl](6-(2-cyanophenyl)-2-{[2-(3-fluorophenyl)ethyl]amino}(3-pyridyl))carboxamide]
677 | Cc1ccc(-c2ccc(C(=O)NCc3cccnc3)c(NCCc3ccccn3)n2)cc1 [{6-(4-methylphenyl)-2-[(2-(2-pyridyl)ethyl)amino](3-pyridyl)}-N-(3-pyridylmethyl)carboxamide]
28 | N#Cc1ccccc1-c1ccc(C(=O)NCc2cccnc2)c(NCCc2ccccc2F)n1 [(6-(2-cyanophenyl)-2-{[2-(2-fluorophenyl)ethyl]amino}(3-pyridyl))-N-(3-pyridylmethyl)carboxamide]
963 | O=C(NC[C@H]1CCCN1C(=O)CCCO)c1ccc(-c2cn[nH]c2)nc1NCCc1cccc(F)c1 [N-{[(2R)-1-(4-hydroxybutanoyl)pyrrolidin-2-yl]methyl}(2-{[2-(3-fluorophenyl)ethyl]amino}-6-pyrazol-4-yl(3-pyridyl))carboxamide]
513 | COC(=O)[C@@H](CO)NC(=O)c1ccc(-c2ccccc2C#N)nc1NCCc1cccc(F)c1 [methyl (2R)-2-[(6-(2-cyanophenyl)-2-{[2-(3-fluorophenyl)ethyl]amino}(3-pyridyl))carbonylamino]-3-hydroxypropanoate]
150 | N#Cc1ccccc1-c1ccc(C(=O)NCCc2cccnc2)c(NCCc2cccc(F)c2)n1 [(6-(2-cyanophenyl)-2-{[2-(3-fluorophenyl)ethyl]amino}(3-pyridyl))-N-(2-(3-pyridyl)ethyl)carboxamide]
